Data reported in patent US8535226B2, “Method for measuring in vivo hematotoxicity with an emphasis on radiation exposure assessment” (Litron Laboratories, Ltd., priority 2007, dated 2013).

Legend:
lymphocytes [1] = assay: Ex vivo treatment of human blood, TMRE mitochondrial membrane potential of lymphocytes by flow cytometry; type: cell-based; conditions: whole blood treated ex vivo with 50 μM before staining with SYTO 13 and TMRE
Description: Furthermore, one fraction of blood was treated ex vivo with carbonyl cyanide 3-chlorophenylhydrazone (CCCP), a toxic chemical that is known to disrupt mitochondrial membrane potential.
Blood from a finger prick (approximately 150 μl) was collected into a tube containing 10 μl heparin solution (500 Units/ml; approximately 6% dilution). One 5 μl aliquot of heparinized whole blood was added to a tube with 1 ml Hank's Balance Salt Solution containing SYTO®13 at 5 nM, TMRE at 100 nM, and 20,720 counting beads per ml (beads from Molecular Probes, cat. no. C36950) (i.e., blood diluted another 200-fold). A second fraction of blood was treated with 50 μM CCCP before being stained with SYTO® and TMRE as above. After staining for 30 minutes at room temperature, the samples were analyzed with a FACSCalibur flow cytometer providing 488 nm excitation.
Acquisition was triggered with a FL1 threshold that was set sufficiently high so as to exclude platelets, mature erythrocytes and reticulocytes, thereby restricting acquisition to nucleated cells. By expressing light scatter in linear scale, it was possible to focus on particular subpopulations, for instance lymphocytes that are low in forward and side scatter relative to other nucleated cells (FIG. 4A). […]

reticulocytes = assay: Radioprotectant evaluation using mouse blood: reticulocytes; type: in vivo, C57BL/6J mice; conditions: 400 mg/kg ip, 30 minutes prior to 1 Gy gamma rays; blood collected 46±3 hrs post-irradiation
Description: In this experiment, one group of five C57BL/6J mice was sham irradiated, whereas two other groups of five mice were exposed to 1 Gy gamma rays. […] 5 μl of whole blood were added to tubes containing 1 ml HBSS with SYTO®13 at 10 nM, TMRE at 100 nM, and 20,720 counting beads per ml (beads from Molecular Probes, cat. no. C36950). After 30 minutes at room temperature, the samples were moved to 4° C. and analyzed with a FACSCalibur flow cytometer providing 488 nm excitation. In the first round of analysis, a forward scatter threshold was used to trigger data acquisition. With the trigger channel set sufficiently low, platelets as well as all blood cell types were acquired. Similar to thiazole orange, SYTO®13 dye in conjunction with light scatter signals was capable of resolving mature erythrocytes, reticulocytes, nucleated cells, platelets, and reticulated platelets. […] Reticulocytes can thus be quantified as a percentage of all erythrocytes, and reticulated platelets can be quantified as a percentage of all platelets. Furthermore, with the incorporation of the TMRE dye, it was possible to enumerate the percentage of reticulocytes that express dysfunctional mitochondrial membranes.

lymphocytes [2] = assay: Radioprotectant evaluation using mouse blood: lymphocytes; type: in vivo, C57BL/6J mice; conditions: 400 mg/kg ip, 30 minutes prior to 1 Gy gamma rays; blood collected 46±3 hrs post-irradiation
Description: In this experiment, one group of five C57BL/6J mice was sham irradiated, whereas two other groups of five mice were exposed to 1 Gy gamma rays. While one group of irradiated mice was injected with vehicle, the other was injected with the radioprotectant agent amifostine (400 mg/kg injected ip, 30 minutes prior to irradiation). […] 5 μl of whole blood were added to tubes containing 1 ml HBSS with SYTO®13 at 10 nM, TMRE at 100 nM, and 20,720 counting beads per ml (beads from Molecular Probes, cat. no. C36950). After 30 minutes at room temperature, the samples were moved to 4° C. and analyzed with a FACSCalibur flow cytometer providing 488 nm excitation. […] Furthermore, with the incorporation of the TMRE dye, it was possible to enumerate the percentage of lymphocytes that express dysfunctional mitochondrial membranes.

Structure (SMILES) | TMRE-associated fluorescence of lymphocytes / incidence of TMRE-negative lymphocytes (lymphocytes [1]) | TMRE-associated fluorescence of lymphocytes / incidence of TMRE-negative lymphocytes (lymphocytes [1]; listed as carbonyl cyanide 3-chlorophenylhydrazone) | reticulocyte effects of 1 Gy irradiation (decrease of reticulocytes, increase in percentage of reticulocytes with dysfunctional mitochondria) (reticulocytes) | protection against decrease of percentage of lymphocytes by 1 Gy irradiation (lymphocytes [2])
N#CC(C#N)=NNc1cccc(Cl)c1 [CCCP, carbonyl cyanide 3-chlorophenylhydrazone] | increased incidence of events falling into this region | low TMRE-associated fluorescence |  | 
NCCCNCCSP(=O)(O)O [amifostine] |  |  | ameliorated | no appreciable protection
